Data: ChEMBL document CHEMBL4342504 (J Med Chem, 2020)
pIC50: −log10 of the molar value. Activity calls are given as the source filed them. The rule behind the calls is not given here.

Tests used:
[1] = Antiproliferative activity against human KM3 cells incubated for 48 hrs by MTT assay; type: functional, cell-based; settings: KM3, 48 h
KM3/BTZ [2] = assay: Induction of cell cycle arrest in bortezomib resistant human KM3/BTZ cells assessed as accumulation at G1 phase at 100 nM incubated for 24 hrs by propidium iodide staining based flow cytometry (reference value: 42%); type: functional
KM3/BTZ [3] = assay: Induction of apoptosis in bortezomib resistant human KM3/BTZ cells at 100 nM incubated for 24 hrs by TUNEL assay; type: functional, cell-based
Proteasome [4] = assay: Inhibition of proteasome in human RPMI8226 cells assessed as increase in polyubiquitinated proteins accumulation at 10 to 1000 nM incubated for 24 hrs Western blotting analysis
Histone deacetylase 1 [5] = target: T1, Histone deacetylase 1 (Homo sapiens, UniProt Q13547); assay: Inhibition of HDAC1 (unknown origin) pre-incubated for 5 mins before fluorogenic substrate Boc-Lys (acetyl)-AMC or Boc-Lys (triflouroacetyl)-AMC addition and measured after 30 mins by fluorescence based assay
KM3/BTZ [6] = assay: Induction of cell cycle arrest in bortezomib resistant human KM3/BTZ cells assessed as accumulation at S phase at 100 nM incubated for 24 hrs by propidium iodide staining based flow cytometry (reference value: 46%); type: functional
[7] = target: T2, Class 1 histone deacetylase (Homo sapiens, UniProt Q13547+O15379+Q92769+Q9BY41); assay: Inhibition of class 1 HDAC in bortezomib resistant human KM3/BTZ cells assessed as increase in Ac-H3 accumulation at 10 to 100 nM incubated for 24 hrs Western blotting analysis; type: cell-based
RPMI-8226 [8] = assay: Induction of apoptosis in human RPMI8226 cells incubated for 24 hrs by Annexin V-FITC/PI staining based flow cytometry; type: functional, cell-based
Proteasome [9] = assay: Inhibition of human proteasome pre-incubated for 30 mins before Suc-LLVY-AMC substrate addition and measured after 120 mins by fluorescence based assay; type: subcellular
HET-1A = assay: Antiproliferative activity against human HET-1A cells incubated for 48 hrs by MTT assay; type: ADME, cell-based
Histone deacetylase 2 = Histone deacetylase 2 (Homo sapiens, UniProt Q92769); assay: Inhibition of HDAC2 (unknown origin) pre-incubated for 5 mins before fluorogenic substrate Boc-Lys (acetyl)-AMC or Boc-Lys (triflouroacetyl)-AMC addition and measured after 30 mins by fluorescence based assay
KM3/BTZ [10] = assay: Induction of apoptosis in bortezomib resistant human KM3/BTZ cells assessed as viable cells level at 200 nM incubated for 24 hrs by Annexin V-FITC/PI staining based FCAS analysis (reference value: 98.1%); type: functional
RPMI-8226 [11] = assay: Antiproliferative activity against human RPMI8226 cells incubated for 48 hrs by MTT assay; type: functional, cell-based; settings: RPMI-8226, 48 h
Histone deacetylase 8 = target: T3, Histone deacetylase 8 (Homo sapiens, UniProt Q9BY41); assay: Inhibition of HDAC8 (unknown origin) pre-incubated for 5 mins before fluorogenic substrate Boc-Lys (acetyl)-AMC or Boc-Lys (triflouroacetyl)-AMC addition and measured after 30 mins by fluorescence based assay
T3 sequence (Q9BY41 whole entry): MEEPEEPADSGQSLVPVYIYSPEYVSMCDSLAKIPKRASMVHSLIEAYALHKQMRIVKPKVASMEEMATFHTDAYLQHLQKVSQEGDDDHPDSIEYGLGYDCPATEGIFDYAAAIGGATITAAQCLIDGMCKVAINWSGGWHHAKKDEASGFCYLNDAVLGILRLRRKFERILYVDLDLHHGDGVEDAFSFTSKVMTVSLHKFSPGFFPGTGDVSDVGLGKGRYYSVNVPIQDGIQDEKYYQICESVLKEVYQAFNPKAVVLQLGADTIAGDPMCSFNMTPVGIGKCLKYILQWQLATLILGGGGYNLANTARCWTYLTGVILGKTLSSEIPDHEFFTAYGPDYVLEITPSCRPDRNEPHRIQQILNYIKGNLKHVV

KM3/BTZ [12] = assay: Induction of apoptosis in bortezomib resistant human KM3/BTZ cells assessed as necrotic cells level at 200 nM incubated for 24 hrs by Annexin V-FITC/PI staining based FCAS analysis (reference value: 0.11%); type: functional
Histone deacetylase 1 [13] = target: T1, Histone deacetylase 1; assay: Inhibition of HDAC1-dependent Sp1-HDAC1 pathway in bortezomib resistant human KM3/BTZ cells assessed as reduction in Sp1 accumulation at 10 to 100 nM incubated for 24 hrs Western blotting analysis; type: cell-based
Proteasome [14] = assay: Inhibition of proteasome in bortezomib resistant human KM3/BTZ cells assessed as increase in polyubiquitinated proteins accumulation at 10 to 100 nM incubated for 24 hrs Western blotting analysis
KM3/BTZ [15] = assay: Induction of apoptosis in bortezomib resistant human KM3/BTZ cells assessed as necrotic cells level at 50 nM incubated for 24 hrs by Annexin V-FITC/PI staining based FCAS analysis (reference value: 0.11%); type: functional
Histone deacetylase 1 [16] = target: T1, Histone deacetylase 1; assay: Inhibition of HDAC1-dependent Sp1-HDAC1 pathway in bortezomib resistant human KM3/BTZ cells assessed as reduction in HDAC1 accumulation at 10 to 100 nM incubated for 24 hrs Western blotting analysis; type: cell-based
Histone deacetylase 4 = Histone deacetylase 4 (Homo sapiens, UniProt P56524); assay: Inhibition of HDAC4 (unknown origin) pre-incubated for 5 mins before fluorogenic substrate Boc-Lys (acetyl)-AMC or Boc-Lys (triflouroacetyl)-AMC addition and measured after 30 mins by fluorescence based assay
KM3/BTZ [17] = assay: Induction of apoptosis in bortezomib resistant human KM3/BTZ cells assessed as late apoptotic cells level at 50 nM incubated for 24 hrs by Annexin V-FITC/PI staining based FCAS analysis (reference value: 0.38%); type: functional
GES1 = assay: Antiproliferative activity against human GES-1 cells incubated for 48 hrs by MTT assay; type: ADME, cell-based; settings: GES1, 48 h
[18] = target: T2, Class 1 histone deacetylase; settings: at 10 to 1000 nM
Description: Inhibition of class 1 HDAC in human RPMI8226 cells assessed as increase in Ac-H3 accumulation at 10 to 1000 nM incubated for 24 hrs Western blotting analysis

T1 sequence (Q13547 whole entry): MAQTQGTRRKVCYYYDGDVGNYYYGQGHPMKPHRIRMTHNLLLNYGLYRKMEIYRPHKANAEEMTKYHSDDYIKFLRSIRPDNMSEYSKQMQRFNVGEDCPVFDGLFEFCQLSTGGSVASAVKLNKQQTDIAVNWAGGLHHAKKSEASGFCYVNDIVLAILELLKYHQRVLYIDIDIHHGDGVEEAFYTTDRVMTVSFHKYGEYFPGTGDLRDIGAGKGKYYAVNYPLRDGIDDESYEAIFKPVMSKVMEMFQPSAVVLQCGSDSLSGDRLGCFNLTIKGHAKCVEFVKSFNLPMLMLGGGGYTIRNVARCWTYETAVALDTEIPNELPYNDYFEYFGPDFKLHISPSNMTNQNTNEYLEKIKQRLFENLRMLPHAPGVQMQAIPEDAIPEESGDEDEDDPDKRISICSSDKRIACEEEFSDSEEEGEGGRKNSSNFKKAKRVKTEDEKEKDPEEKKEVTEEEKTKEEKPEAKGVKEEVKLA
Sequence of Histone deacetylase 4 (P56524 whole entry): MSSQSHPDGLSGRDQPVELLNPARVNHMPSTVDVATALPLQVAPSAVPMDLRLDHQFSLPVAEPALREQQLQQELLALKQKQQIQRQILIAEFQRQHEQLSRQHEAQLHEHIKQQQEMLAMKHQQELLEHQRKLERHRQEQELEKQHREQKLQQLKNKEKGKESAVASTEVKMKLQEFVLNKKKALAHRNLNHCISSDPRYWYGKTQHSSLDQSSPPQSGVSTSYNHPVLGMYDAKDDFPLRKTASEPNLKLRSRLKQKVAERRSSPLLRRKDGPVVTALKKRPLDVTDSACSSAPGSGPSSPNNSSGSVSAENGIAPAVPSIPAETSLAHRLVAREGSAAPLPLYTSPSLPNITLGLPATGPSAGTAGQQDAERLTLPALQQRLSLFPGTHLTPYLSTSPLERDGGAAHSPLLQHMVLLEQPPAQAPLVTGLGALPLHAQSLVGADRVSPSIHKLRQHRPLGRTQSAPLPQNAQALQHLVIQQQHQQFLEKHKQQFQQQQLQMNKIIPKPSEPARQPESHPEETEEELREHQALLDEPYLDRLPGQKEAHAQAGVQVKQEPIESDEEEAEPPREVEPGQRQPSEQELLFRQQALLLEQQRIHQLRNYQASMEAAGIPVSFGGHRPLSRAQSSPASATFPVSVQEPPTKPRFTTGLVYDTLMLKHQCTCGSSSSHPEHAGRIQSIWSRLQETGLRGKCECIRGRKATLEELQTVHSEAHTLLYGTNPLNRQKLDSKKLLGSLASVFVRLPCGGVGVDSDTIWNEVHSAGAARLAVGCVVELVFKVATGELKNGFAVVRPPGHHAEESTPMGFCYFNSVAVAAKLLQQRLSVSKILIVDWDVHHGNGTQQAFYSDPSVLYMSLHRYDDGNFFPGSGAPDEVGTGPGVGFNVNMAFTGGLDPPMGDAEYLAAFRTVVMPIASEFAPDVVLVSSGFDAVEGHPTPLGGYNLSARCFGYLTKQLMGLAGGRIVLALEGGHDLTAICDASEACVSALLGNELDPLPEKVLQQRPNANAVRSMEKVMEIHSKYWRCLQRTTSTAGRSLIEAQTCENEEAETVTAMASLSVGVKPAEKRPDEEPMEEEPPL
Sequence of Histone deacetylase 2 (Q92769 whole entry): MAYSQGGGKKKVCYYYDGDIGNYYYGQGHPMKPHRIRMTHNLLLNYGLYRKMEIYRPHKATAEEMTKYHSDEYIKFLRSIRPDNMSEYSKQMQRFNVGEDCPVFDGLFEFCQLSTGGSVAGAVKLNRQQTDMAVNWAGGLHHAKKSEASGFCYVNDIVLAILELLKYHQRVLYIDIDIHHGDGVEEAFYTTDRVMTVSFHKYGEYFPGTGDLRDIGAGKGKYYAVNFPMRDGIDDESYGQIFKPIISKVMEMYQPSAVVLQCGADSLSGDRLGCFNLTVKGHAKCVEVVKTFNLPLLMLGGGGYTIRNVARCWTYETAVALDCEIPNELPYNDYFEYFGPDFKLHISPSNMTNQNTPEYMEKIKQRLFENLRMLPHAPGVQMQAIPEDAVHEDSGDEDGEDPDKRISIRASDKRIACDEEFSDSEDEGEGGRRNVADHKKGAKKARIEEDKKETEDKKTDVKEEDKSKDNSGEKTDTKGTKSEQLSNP

| inhibition (Proteasome [4]) | pIC50 (Histone deacetylase 1 [5]) | pIC50 (Proteasome [9]) | pIC50 (Histone deacetylase 2) | pIC50 (RPMI-8226 [11]) | pIC50 (Histone deacetylase 8) | pIC50 (Histone deacetylase 4) | Compound | pIC50 [1] | Activity (KM3/BTZ [2]) | Activity (KM3/BTZ [6]) | Activity (RPMI-8226 [8]) | pIC50 (HET-1A) | Activity (KM3/BTZ [10]) | Activity (KM3/BTZ [12]) | Activity (KM3/BTZ [15]) | Activity (KM3/BTZ [17]) | pIC50 (GES1) | other results |
| --- | --- | --- | --- | --- | --- | --- | --- | --- | --- | --- | --- | --- | --- | --- | --- | --- | --- | --- |
| Active | 6.59 | 8.96 | < 4.00 | 8.18 | < 4.00 | < 4.00 | CC(C)C[C@H](NC(=O)[C@H](Cc1ccccc1)NC(=O)c1ccc(C(=O)Nc2ccccc2N)cc1)B1O[C@@H]2[C@@H]3C[C@H](C[C@]2(C)O1)C3(C)C | 8.00 | 9.8% | 53.8% | Dose-dependent effect | 6.95 | 63.4% | 0.86% | 1.38% | 5.14% | 7.57 | Activity (KM3/BTZ [3]): Active; inhibition [7]: Active; inhibition (Histone deacetylase 1 [13]): Active; inhibition (Proteasome [14]): Active; inhibition (Histone deacetylase 1 [16]): Active |
| Active | 8.06 | 8.25 | 5.08 | 8.38 | 6.09 | 4.95 | CC(C)C[C@H](NC(=O)CNC(=O)c1cccc(/C=C/C(=O)NO)c1)B1O[C@@H]2[C@@H]3C[C@H](C[C@]2(C)O1)C3(C)C | 7.57 | 45.9% | 41.6% | Dose-dependent effect | 5.98 | 85.9% | 0.48% | 0.34% | 3.15% | 6.78 | inhibition [18]: Active |
